According to patent publication US9217014B2, “Antifungal agents and uses thereof” (Cidara Therapeutics, Inc., priority 2011, dated 2015):
Like-named read-outs stand apart in the source and are kept apart here. *1 amine or outer side, *2 acyl side, *3 side chain or, on linkers, in order; H or OH if unused. Where a SMILES comes first, the peptide text is derived from it. Bridges are numbered along the chain shown (N, C = ends). [ ]: non-standard residue; d: D form. The star is where a group is joined. pTerphenylCO(4''-OnC5H11) = CCCCCOc1ccc(-c2ccc(-c3ccc(C(=O)*)cc3)cc2)cc1; Orn(4R-OH,5R-OH) = O=C([C@H](C[C@@H](O)[C@@H](O)N[*:3])N[*:1])[*:2]; hTyr(3S-OH,4S-OH) = N[C@H](C(=O)O)[C@H](O)[C@@H](O)c1ccc(O)cc1; Pro(3S-OH,4S-Me) = C[C@H]1CN[C@H](C(=O)O)[C@H]1O; Hyp = O=C(O)[C@@H]1C[C@@H](O)CN1

Tests used:
[1] = Pharmacokinetics in beagle dogs, intravenous; type: in vivo; details: 1.4 mg/kg intravenous slow bolus, mean ± SEM, n = 4 beagle dogs
Procedure: The test articles were administered to beagle dogs weighing approximately 6-10 kg. Each test article was dosed at 1.4 mg/kg in aqueous saline (with or without 0.5% Tween) over course of 1-10 minutes. […] The dogs were fasted at least 12 hours prior to each dosing and offered food after the 4-hour blood sample was taken; water was withheld for 1 hour prior to and 4 hours following each dosing event. The dose for each animal was based on its most recent body weight. The test article was injected intravenously via a catheter placed in the cephalic vein as a slow bolus.
Blood was collected via the jugular vein. All blood samples (˜1 mL each) were collected into K3EDTA tubes. Following blood collection, the samples were immediately inverted several times and were held on wet ice pending centrifugation. The samples were centrifuged within ˜30 minutes of collection under refrigeration (˜5° C. for ˜10 minutes at ˜2000 g) to obtain plasma. The plasma was frozen immediately on dry ice after separation. The plasma samples were stored at approximately −70° C. until analysis.
Plasma (100 μL) was precipitated with 400 μL of 0.1% formic acid in acetonitrile containing the internal standard (100 ng/mL pneumocandin). The samples were then capped and vortexed for about 30 seconds followed by centrifugation at 14,000 rpm at room temperature for 10 minutes. Following centrifugation 200 μL of supernatant was transferred to plastic autosampler vials containing 200 μL of 0.1% formic acid in water and vortexed. Samples were then analyzed by LCMSMS.
All pharmacokinetic calculations were performed using WinNonlin version 4.1 (Pharsight Corp) by noncompartmental analysis.

C. albicans R303 = test: mouse candidiasis infection model, IP administration, kidney fungal burden; type: in vivo
Procedure: The objective of these studies was to evaluate the efficacy of test compounds in the mouse candidiasis infection model. Amounts of test articles are uncorrected.
The strain, C. albicans R303 was transferred from frozen storage onto Sabauroud dextrose agar (SDA) plates and grown for ˜24 hr at 35° C. The inoculum was prepared by transferring colonies from the plate to phosphate buffered saline (PBS) and the concentration adjusted to approximately 10^6 CFU/mL with the aid of a spectrophotometer. The stock was diluted 1:9 to prepare the inoculum. Prior to each run the concentration was verified using the dilution plate count method.
Female CD-1 mice were used in this study. The animals were approximately seven-weeks-old at the start of the study and weighed about 15-30 g.
Mice were made neutropenic with IP injections of cyclophosphamide (150 mg/kg in 10 mL/kg) at 4 and 1 day before inoculation. Each animal was inoculated with the appropriate concentration by injecting 0.1 mL of inoculum into a tail vein. The test compounds were administered IP at 2 hr after infection.
In a typical procedure, the kidneys were collected from four mice in control group 1 (untreated) at 2 hr after infection, and from another four mice in control group 2 (untreated) at 24 hr after infection. Kidneys were removed aseptically from each mouse and were combined in a sterile tube. An aliquot (2 mL) of sterile PBS was added to each tube and the contents homogenized with a tissue homogenizer (Polytron 3100). Serial dilutions of the tissue homogenates were conducted and 0.1 mL aliquots were spread on SDA plates and the plates incubated at 35° C. overnight. The CFU/kidneys were determined from colony counts. Data were analyzed using one-way ANOVA with either the Tukey-Kramer Multiple Comparisons Test or Dunnett Test (GraphPad InStat version 3.06, GraphPad Software, San Diego, Calif.).
The data reported below are the average of four mice. Each run included a separate control and each is tabulated separately.

[2] = Solubility in aqueous buffers of varying pH; type: physicochemical; details: ambient temperature, compound 1 as acetate salt
Procedure: The solubility of compound 1 (acetate salt) was measured in aqueous buffers of varying pH to assess this compound's suitability for formulation in an aqueous carrier for administration by injection (e.g., intravenous or intramuscular injection).

[3] = Solubility in non-aqueous solvents; type: physicochemical; details: organic solvent or mixture, compound 1 as acetate salt
Procedure: The solubility of compound 1 (acetate salt) was also measured in non-aqueous solvents to assess this compound's suitability for formulation in non-aqueous carriers.

Compound: CCCCCOc1ccc(-c2ccc(-c3ccc(C(=O)N[C@H]4C[C@@H](O)[C@@H](O)NC(=O)[C@@H]5[C@@H](O)[C@@H](C)CN5C(=O)[C@H]([C@@H](C)O)NC(=O)[C@H]([C@H](O)[C@@H](O)c5ccc(O)cc5)NC(=O)[C@@H]5C[C@@H](O)CN5C(=O)[C@H]([C@@H](C)O)NC4=O)cc3)cc2)cc1 [anidulafungin, reference compound] ({pTerphenylCO(4''-OnC5H11)}-[Orn(4R-OH,5R-OH)]T[Hyp][hTyr(3S-OH,4S-OH)]T[Pro(3S-OH,4S-Me)]; lactam 1-C)
- CI [1]: 0.785 ± 0.032 mL/min/kg
- Vz [1]: 0.779 ± 0.0304 L/kg
- half-life ([1]; beagle, dog, in vivo, iv, 1.4 mg/kg, read-out: T ½ (converted)): ~12 h
- log reduction at 1 mg/kg (C. albicans R303; Candida albicans, R303, ip, 24 h, read-out: Difference from 24-h control, Fifth run, IP 1 mg/kg): 2.07
- log reduction at 1 mg/kg (C. albicans R303; Candida albicans, R303, ip, 24 h, read-out: Difference from 24-h control, First run, IP 1 mg/kg): 1.83
- log reduction at 0.5 mg/kg (C. albicans R303; Candida albicans, R303, ip, 24 h, read-out: Difference from 24-h control, Fourth run, IP 0.5 mg/kg): 1.29
- log reduction at 1.5 mg/kg (C. albicans R303; Candida albicans, R303, ip, 24 h, read-out: Difference from 24-h control, Fourth run, IP 1.5 mg/kg): 4.03
- log reduction at 0.5 mg/kg (C. albicans R303; Candida albicans, R303, ip, 24 h, read-out: Difference from 24-h control, Second run, IP 0.5 mg/kg): 0.47
- log reduction at 1.5 mg/kg (C. albicans R303; Candida albicans, R303, ip, 24 h, read-out: Difference from 24-h control, Second run, IP 1.5 mg/kg): 2.11
- log reduction at 4.5 mg/kg (C. albicans R303; Candida albicans, R303, ip, 24 h, read-out: Difference from 24-h control, Second run, IP 4.5 mg/kg): 3.78
- Mean log10 CFU/kidneys (±SEM) (C. albicans R303; Fifth run, IP 1 mg/kg, kidneys 24 h after infection): 3.06 ± 0.18 log10 CFU/kidneys
- Mean log10 CFU/kidneys (±SD) (C. albicans R303; First run, IP 1 mg/kg, neutropenic mice, kidneys 24 h after infection): 3.37 ± 0.72 log10 CFU/kidneys
- Mean log10 CFU/kidneys (±SEM) (C. albicans R303; Fourth run, IP 0.5 mg/kg, kidneys 24 h after infection): 3.81 ± 0.19 log10 CFU/kidneys
- Mean log10 CFU/kidneys (±SEM) (C. albicans R303; Fourth run, IP 1.5 mg/kg, kidneys 24 h after infection): 1.08 ± 0.08 log10 CFU/kidneys
- Mean log10 CFU/kidneys (±SEM) (C. albicans R303; Second run, IP 0.5 mg/kg, kidneys 24 h after infection): 4.41 ± 0.12 log10 CFU/kidneys
- Mean log10 CFU/kidneys (±SEM) (C. albicans R303; Second run, IP 1.5 mg/kg, kidneys 24 h after infection): 2.77 ± 0.20 log10 CFU/kidneys
- Mean log10 CFU/kidneys (±SEM) (C. albicans R303; Second run, IP 4.5 mg/kg, kidneys 24 h after infection): 1.10 ± 0.38 log10 CFU/kidneys
- solubility ([2]; aqueous buffer, pH 3 (0.01M formate buffer)): < 10 µg/mL
- solubility ([2]; aqueous buffer, pH 4.6 (0.1M acetate buffer)): < 10 µg/mL
- solubility ([2]; aqueous buffer, pH 5.6 (0.1M acetate buffer)): < 10 µg/mL
- solubility ([2]; aqueous buffer, pH 7.4 (0.1M phosphate buffer)): < 10 µg/mL
- solubility ([2]; aqueous buffer, pH 8.5 (0.01M TRIS buffer)): < 10 µg/mL
- solubility ([2]; saline or isotonic, 0.9% saline): < 10 µg/mL
- solubility ([2]; simulated gastric fluid, pH 1 (0.1M HCl)): < 10 µg/mL
- solubility ([3]; Ethanol (EtOH)): > 17600 µg/mL
- solubility ([3]; Glycerol): 1500 µg/mL
- solubility ([3]; PEG400): > 26800 µg/mL
- solubility ([3]; Propylene glycol(PG)): > 17200 µg/mL
